Laboratory results as given in US20150004110A1, “NOVEL ANTI-AGING AND DEPIGMENTING COSMETIC COMPOSITIONS” (DIVERCHIM, priority 2011, published 2015).

Assays:
collagen III = test: Staining and immunolabelling of skin explant sections: collagen III; type: cell-based, human; settings: treated skin explant sections
Description: 1. Preparation of the explants • During abdominoplasty of a person, 45 skin explants were prepared. The explants were put in BEM medium (BIO-EC's Explants Medium) for survival at 37° C. in humid atmosphere, enriched with 5% CO2.
2. Application of the products • The solutions are prepared in DMSO from pure products, in order to obtain final concentrations of […] by incorporating an identical volume of 10 μl in each well and for each treatment. The treatment was carried out in the survival medium on days 0, 1, 2, 5 and 7.
3. Taking samples • On D0, the 3 explants of batch TO were taken and each explant was cut in two. One part was fixed in buffered formol for observation of the general morphology. The other was frozen and stored at −80° C. • On D5 and D9, 3 explants from each batch were taken and treated in the same way.
4. Histological treatment • After fixation for 48 hours in buffered formol, the samples were dehydrated and embedded in paraffin using a Leica 1020 automatic dehydrator. They were embedded according to procedure MO-H-153 using a Leica EG 1160 coating station. Sections of 5 μm were prepared according to procedure MO-H-173 using a Minot-type microtome, Leica RM 2125 and mounted on Superfrost® histological glass slides.
6. Staining and immunolabelling
Immunolabelling will be carried out on sections with the appropriate antibody. […]

[1] = tested on: matrix metallopeptidase gene MMP9; test: RT-qPCR expression of MMP9 in keratinocytes; type: cell-based, human; settings: 10 μM
Description: The expression of the specific markers was evaluated by RT-qPCR (reverse transcription quantitative polymerase chain reaction) on messenger RNAs extracted from the cell lawns from each treatment. The transcriptomic profile contains 64 genes selected for their importance in keratinocyte differentiation. The PCR reactions (polymerase chain reactions) were carried out by quantitative PCR with the “Light Cycler” system (Roche Molecular System Inc.) according to the procedures recommended by the supplier. Normal human epidermal keratinocytes were incubated in the presence of compound 1 or a reference with calcium chloride. The expression of the specific markers was evaluated by RT-qPCR on the messenger RNAs extracted from the cell lawns from each treatment.

prostaglandin E2 (PGE2) = test: Release of PGE2 by NCTC-2544 keratinocytes stimulated by PMA; type: cell-based, human; settings: NCTC-2544 stimulated by PMA
Description: The effects of compound 1 were evaluated on two routes of inflammation, the “chemokine” route and the “prostaglandin” route, by measuring the release of interleukin-8 (IL-8) and of prostaglandin E2 (PGE2) by a human keratinocyte line NCTC-2544 stimulated by phorbol-myristate acetate (PMA).

PPARα (h) [2] = target: T1, PPARα (h) (Homo sapiens, UniProt Q07869); test: PPARα agonist effect, coactivator Alpha screen; type: biochemical
T1 sequence (Q07869 1-468): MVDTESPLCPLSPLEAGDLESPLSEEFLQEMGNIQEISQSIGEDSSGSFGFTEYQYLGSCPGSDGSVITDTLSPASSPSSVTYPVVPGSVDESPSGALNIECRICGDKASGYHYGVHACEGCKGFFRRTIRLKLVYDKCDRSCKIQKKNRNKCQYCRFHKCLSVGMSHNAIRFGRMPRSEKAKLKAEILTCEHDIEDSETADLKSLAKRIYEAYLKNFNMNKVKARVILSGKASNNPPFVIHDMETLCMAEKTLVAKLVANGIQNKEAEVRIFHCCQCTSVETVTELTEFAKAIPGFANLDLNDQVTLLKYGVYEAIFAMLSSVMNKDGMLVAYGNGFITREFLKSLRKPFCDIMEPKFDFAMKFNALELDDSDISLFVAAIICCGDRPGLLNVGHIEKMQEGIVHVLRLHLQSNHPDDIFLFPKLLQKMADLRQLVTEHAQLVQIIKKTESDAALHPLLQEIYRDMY
Description: (§1) The agonist or antagonist activity of compound 1 on the PPAR receptors was tested by fluorescence techniques. • Material and Methods
(§2) The results are expressed as: • percentage of control specific agonist response (measured specific response/control specific agonist response)×100) and • percentage inhibition of the control specific agonist response (100−((measured specific response)/control specific agonist response)×100)) obtained in the presence of compound 1.
(§3) The EC50 values (concentration at which the maximum specific response is 50%) and the IC50 values (concentration at which the maximum control specific agonist response is inhibited by 50%) are determined by non-linear regression analysis of the concentration-response curves with a mean replicated value using adjustment of Hill's equation

PPARα (h) [3] = target: T1, PPARα (h); test: PPARα antagonist effect, coactivator Alpha screen; type: biochemical
Description: as §1, §2, §3
(§4) For the antagonists, the apparent dissociation constants (KB) were calculated using the modified Cheng-Prusoff equation

PPARδ (h) = target: T2, PPARδ (h) (Homo sapiens, UniProt Q03181); test: PPARδ antagonist effect, coactivator Alpha screen; type: biochemical
T2 sequence (Q03181 1-441): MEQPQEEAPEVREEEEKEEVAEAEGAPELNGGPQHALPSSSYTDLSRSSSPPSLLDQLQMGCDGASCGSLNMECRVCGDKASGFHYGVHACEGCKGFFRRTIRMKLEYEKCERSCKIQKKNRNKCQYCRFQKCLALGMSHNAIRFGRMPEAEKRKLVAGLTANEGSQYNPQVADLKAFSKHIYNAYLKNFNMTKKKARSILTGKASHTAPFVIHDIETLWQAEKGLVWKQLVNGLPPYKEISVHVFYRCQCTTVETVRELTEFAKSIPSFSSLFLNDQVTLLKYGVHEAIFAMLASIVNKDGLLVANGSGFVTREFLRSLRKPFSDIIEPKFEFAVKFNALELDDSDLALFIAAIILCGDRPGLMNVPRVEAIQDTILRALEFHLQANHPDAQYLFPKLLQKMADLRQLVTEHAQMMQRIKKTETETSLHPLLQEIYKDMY
Description: as §1, §2, §3, §4

[4] = 10^−5 M, read-out: % Inhibition of control agonist response
[5] = 10^−6 M, read-out: % Inhibition of control agonist response
[6] = 10^−7 M, read-out: % Inhibition of control agonist response

For `Oc1ccccc1CCOc1ccc(F)cc1` [Compound 1, 2-[2-(4-fluoro-phenoxy)-ethyl]-phenol], the “Collagen III in the papillary dermis” value (collagen III) was “very slight densification”, the “Expression of the MMP9 gene” value [1] was “inhibition of expression” and the “Release of PGE2” value (prostaglandin E2 (PGE2)) was “concentration-dependent inhibition”. For the same compound, the “% Control agonist response” value (PPARα (h) [2]; 10^−5 M) was 2%, the “% Control agonist response” value (PPARα (h) [2]; 10^−6 M) was 0% and the “% Control agonist response” value (PPARα (h) [2]; 10^−7 M) was −1%. The “PPARα agonist activity (conclusion in words)” value (PPARα (h) [2]; 10^−7 to 10^−5 M) was “not an agonist”, the inhibition at 10 µM (PPARα (h) [3]; [4]) was 4% and the inhibition at 1 µM (PPARα (h) [3]; [5]) was 0%. For the same compound, the inhibition at 0.1 µM (PPARα (h) [3]; [6]) was 1%, the “PPARα antagonist activity (conclusion in words)” value (PPARα (h) [3]; 10^−7 to 10^−5 M) was “not an antagonist” and the inhibition at 10 µM (PPARδ (h); [4]) was -5%. The inhibition at 1 µM (PPARδ (h); [5]) was -2%, the inhibition at 0.1 µM (PPARδ (h); [6]) was 0% and the “PPARδ antagonist activity (conclusion in words)” value (PPARδ (h); 10^−7 to 10^−5 M) was “not an antagonist”.
